Values quoted from earlier work, collected in patent US9491955B2, “Balanced myristate- and laurate-containing edible oil” (Brandeis University, priority 2008, dated 2016).

System: rats
Conditions: trimyristin component of a blend with peanut oil

For CCCCCCCCCCCCCC(=O)OCC(COC(=O)CCCCCCCCCCCCC)OC(=O)CCCCCCCCCCCCC [trimyristin], the “Decrease of cholesterol-raising capacity by interesterification with GNO” value is given as 34%.
